Biological target: T1, alpha7 nicotinic acetylcholine receptor (Rattus norvegicus, UniProt Q05941)
T1 construct: expressed in transfected cells
Assay: Functional FLIPR assay (calcium), alpha7 nAChR stably expressed in GH4C1 cells
Format: cell-based
Settings: agonist, concentration range 0.001 to 30 microM
Excerpt: Rat GH4C1 cells were then transfected with the rat receptor, cloned and analyzed for functional alpha7 nicotinic receptor expression employing a FLIPR assay to measure changes in intracellular calcium concentrations.
The FLIPR system allows the measurements of real time Ca^2+-concentration changes in living cells using a Ca^2+ sensitive fluorescence dye (such as Fluo4). This instrument enables the screening for agonists and antagonists for alpha 7 nAChR channels stably expressed in GH4C1cells.
GH4C1 cells stably transfected with rat-alpha7-nAChR (see above) were used. These cells are poorly adherent and therefore pretreatment of flasks and plates with poly-D-lysine was carried out. Cells are grown in 150 cm^2 T-flasks, filled with 30 ml of medium at 37° C. and 5% CO2.
EC50 and IC50 values were calculated using the IDBS XLfit4.1 software package employing a sigmoidal concentration-response (variable slope) equation:
Y=Bottom+((Top-Bottom)/(1+((EC50/X) ̂ HillSlope))
The compounds were tested using the functional FLIPR primary screening assay employing the stable recombinant GH4C1 cell line expressing the alpha7 nAChR. Hits identified were validated further by generation of concentration-response curves.

T1 sequence (Q05941 23-502): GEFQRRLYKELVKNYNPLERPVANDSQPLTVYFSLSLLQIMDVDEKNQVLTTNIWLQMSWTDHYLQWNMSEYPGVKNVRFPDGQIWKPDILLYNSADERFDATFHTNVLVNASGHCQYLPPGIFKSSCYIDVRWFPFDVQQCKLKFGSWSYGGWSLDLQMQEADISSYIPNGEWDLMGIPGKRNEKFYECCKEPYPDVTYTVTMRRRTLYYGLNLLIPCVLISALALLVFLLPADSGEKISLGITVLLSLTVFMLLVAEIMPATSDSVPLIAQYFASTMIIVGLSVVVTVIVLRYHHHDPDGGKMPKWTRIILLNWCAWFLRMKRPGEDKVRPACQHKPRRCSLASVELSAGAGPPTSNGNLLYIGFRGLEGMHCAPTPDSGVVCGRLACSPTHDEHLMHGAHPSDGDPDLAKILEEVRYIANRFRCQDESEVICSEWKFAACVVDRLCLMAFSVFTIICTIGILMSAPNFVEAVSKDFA

`C[N+]1(C)CCN(c2ccccc2)CC1` [DMPP] showed an EC50 of 0.98 ± 0.47 µM.
